Tests used:
[1] = molecular target: T1, Calcitonin gene-related peptide type 1 receptor (Homo sapiens, UniProt O60894+Q16602); experiment: Antagonist activity at human CGRP receptor
[2] = Oral bioavailability in rat at 10 mg/kg; type: ADME, organism-based; conditions: in vivo
[3] = Metabolic stability in human liver microsomes assessed as half life; type: ADME, Microsome
[4] = system: Callithrix jacchus; experiment: Antimigraine activity in human CGRPalpha-induced migraine marmoset model assessed as reduction in facial blood flow at 5 mg/kg, sc administered 30 mins after CGRP stimulation and measured after 60 mins by laser doppler method relative to control; type: functional; design: scale not given: the % may be the effect or the level left; conditions: time 90 min, 1.5 h
[5] = Metabolic stability in monkey liver microsomes assessed as half life; type: ADME, Macaca mulatta, Microsome; conditions: rhesus monkey
[6] = molecular target: T1, Calcitonin gene-related peptide type 1 receptor; experiment: Antagonist activity at human CGRP receptor in human SK-N-MC cells assessed as inhibition of CGRP-induced cAMP production; type: functional, cell-based
[7] = Metabolic stability in rat liver microsomes assessed as half life; type: ADME, Microsome
[8] = Protein binding human plasma assessed as unbound fraction; type: ADME, cell-free
[9] = Metabolic stability in dog liver microsomes assessed as half life; type: ADME, Canis lupus familiaris, Microsome
[10] = system: Callithrix jacchus; experiment: Antimigraine activity in human CGRPalpha-induced migraine marmoset model assessed as reduction in facial blood flow at 5 mg/kg, sc administered 30 mins after CGRP stimulation and measured after 105 mins by laser doppler method relative to control; type: functional; design: scale not given: the % may be the effect or the level left; conditions: time 135 min, 2.25 h
[11] = system: Callithrix jacchus; experiment: Antimigraine activity in human CGRPalpha-induced migraine marmoset model assessed as reduction in facial blood flow at 5 mg/kg, sc administered 30 mins after CGRPalpha stimulation measured after 15 mins by laser doppler method relative to control; type: functional; design: scale not given: the % may be the effect or the level left; conditions: time 45 min, 0.75 h

T1 sequence (Q16602 whole entry, one chain of several): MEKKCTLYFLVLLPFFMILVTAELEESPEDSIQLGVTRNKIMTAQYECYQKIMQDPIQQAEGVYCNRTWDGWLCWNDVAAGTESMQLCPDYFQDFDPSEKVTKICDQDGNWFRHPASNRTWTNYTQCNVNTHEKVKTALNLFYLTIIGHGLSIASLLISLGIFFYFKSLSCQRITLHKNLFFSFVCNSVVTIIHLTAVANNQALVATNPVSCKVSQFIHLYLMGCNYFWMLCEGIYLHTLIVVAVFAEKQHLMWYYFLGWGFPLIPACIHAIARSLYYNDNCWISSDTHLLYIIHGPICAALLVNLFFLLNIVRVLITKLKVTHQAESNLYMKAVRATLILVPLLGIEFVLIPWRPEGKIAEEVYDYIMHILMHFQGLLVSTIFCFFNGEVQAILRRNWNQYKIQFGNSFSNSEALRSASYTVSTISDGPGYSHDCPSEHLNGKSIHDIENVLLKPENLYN

Row | SMILES | Ki [1] [nM] | bioavailability [2] [%] | also measured
1 | CC(C)(C)CN1Cc2c(cc(Cl)c3[nH]ncc23)C[C@@H](CC(=O)N2CCC(c3cc4ccccc4[nH]c3=O)CC2)C1=O | 0.75 | 4.5 | –
2 | O=C(C[C@@H]1Cc2cc(Cl)c3[nH]ncc3c2CN(CC(F)(F)F)C1=O)N1CCC(n2c(=O)[nH]c3ccccc32)CC1 | 3.3 | – | –
3 | O=C(C[C@@H]1Cc2cc(Cl)c3[nH]ncc3c2CN(CC(F)(F)F)C1=O)N1CCC(c2cc3ccccc3[nH]c2=O)CC1 | 0.54 | 3.4 | –
4 | O=C(C[C@@H]1Cc2cc(Cl)c3[nH]ncc3c2CN(CC(F)(F)F)C1=O)N1CCC(N2Cc3ccccc3NC2=O)CC1 | 0.23 | – | –
5 | O=C(C[C@@H]1Cc2cc(Cl)c3[nH]ncc3c2CN(CC(F)(F)F)C1=O)N1CCC(N2CCc3ccccc3NC2=O)CC1 | 0.1 | 17 | half-life [3]: 3.6 min; Activity [4]: 41%; half-life [5]: 2.4 min; IC50 [6]: 0.27 nM; half-life [7]: 2.2 min; fraction unbound [8]: 0.028; half-life [9]: 3.1 min; Activity [10]: 47%; Activity [11]: 27%
6 | O=C(C[C@@H]1Cc2cc(Cl)c3[nH]ncc3c2CN(CC(F)(F)F)C1=O)N1CCC(n2c(=O)[nH]c3ncccc32)CC1 | 0.09 | 5.5 | –
7 | CC(C)(C)CN1Cc2c(cc(Cl)c3[nH]ncc23)C[C@@H](CC(=O)N2CCC(N3Cc4cccc(F)c4NC3=O)CC2)C1=O | 0.31 | 4.7 | –
8 | O=C(C[C@@H]1Cc2cc(Cl)c3[nH]ncc3c2CN(CC(F)(F)F)C1=O)N1CCC(N2CCc3cccc(F)c3NC2=O)CC1 | 9.2 | – | –
9 | O=C(C[C@@H]1Cc2cc(Cl)c3[nH]ncc3c2CN(CC(F)(F)F)C1=O)N1CCC(c2cc3cccc(F)c3[nH]c2=O)CC1 | 6 | – | –
10 | CC(C)(C)CN1Cc2c(cc(Cl)c3[nH]ncc23)C[C@@H](CC(=O)N2CCC(c3cc4cccc(F)c4[nH]c3=O)CC2)C1=O | 6 | 12 | –

Further lines, with some results ahead:

Row | Ki [1] [nM] | bioavailability [2] [%] | SMILES | also measured
11 | 14 | – | CC(C)CN1Cc2c(ccc3[nH]ncc23)C[C@@H](NC(=O)N2CCC(N3Cc4ccccc4NC3=O)CC2)C1=O | –
12 | 1.5 | – | CC(C)(C)CN1Cc2c(cc(Cl)c3[nH]ncc23)C[C@@H](NC(=O)N2CCC(N3Cc4ccccc4NC3=O)CC2)C1=O | –
13 | 50 | – | O=C(N[C@@H]1Cc2ccc3[nH]ncc3c2CN(CCN2CCOCC2)C1=O)N1CCC(N2Cc3ccccc3NC2=O)CC1 | –
14 | 7.1 | – | O=C(N[C@@H]1Cc2ccc3[nH]ncc3c2CN(CCc2ccncc2)C1=O)N1CCC(N2Cc3ccccc3NC2=O)CC1 | –
15 | 4.9 | – | CC(C)(C)CN1Cc2c(ccc3[nH]ncc23)C[C@@H](NC(=O)N2CCC(N3Cc4ccccc4NC3=O)CC2)C1=O | –
16 | 370 | – | CN1Cc2c(ccc3[nH]ncc23)C[C@@H](NC(=O)N2CCC(N3Cc4ccccc4NC3=O)CC2)C1=O | –
17 | 290 | – | O=C(N[C@@H]1Cc2ccc3[nH]ncc3c2CN(C2CCNCC2)C1=O)N1CCC(N2Cc3ccccc3NC2=O)CC1 | –
18 | 12 | – | O=C(N[C@@H]1Cc2ccc3[nH]ncc3c2CN(Cc2ccccc2)C1=O)N1CCC(N2Cc3ccccc3NC2=O)CC1 | –
19 | 59 | – | CC(C)N1Cc2c(ccc3[nH]ncc23)C[C@@H](NC(=O)N2CCC(N3Cc4ccccc4NC3=O)CC2)C1=O | –
20 | 0.41 | 1.8 | CC(C)(C)CN1Cc2c(cc(Cl)c3[nH]ncc23)C[C@@H](CC(=O)N2CCC(N3Cc4ccccc4NC3=O)CC2)C1=O | –
21 | 22 | – | O=C(N[C@@H]1Cc2ccc3[nH]ncc3c2CN(Cc2ccncc2)C1=O)N1CCC(N2Cc3ccccc3NC2=O)CC1 | –
22 | 170 | – | CN(C)CCN1Cc2c(ccc3[nH]ncc23)C[C@@H](NC(=O)N2CCC(N3Cc4ccccc4NC3=O)CC2)C1=O | –
23 | 1 | – | O=C(N[C@@H]1Cc2cc(Cl)c3[nH]ncc3c2CN(Cc2ccccc2)C1=O)N1CCC(N2Cc3ccccc3NC2=O)CC1 | –

Reference: ChEMBL document CHEMBL4673257, “Azepino-indazoles as calcitonin gene-related peptide (CGRP) receptor antagonists” (Bioorg Med Chem Lett, 2021)
